Source: the NIST ThermoML archive (doi:10.1016/j.jct.2017.11.017)

Columns and labels:
[1] = 101.33 kPa, Liquid, Vibrating tube method
[2] = activity coefficient (dimensionless); of the first substance listed, at infinite dilution; xn = mol fraction of the nth substance listed; details: 101.33 kPa, Liquid, Chromatography, x1 = 0

C[N+]1(CCCO)CCOCC1.N#C[N-]C#N [4-(3-hydroxypropyl)-4-methylmorpholinium dicyanamide]
[1]
Details	mass density [kg/m3]
298.15 K	1175.4
303.15 K	1172.4
308.15 K	1169.4
313.15 K	1166.5
318.15 K	1163.6
323.15 K	1160.7
328.15 K	1157.9
333.15 K	1155
338.15 K	1152.1
343.15 K	1149.3
348.15 K	1146.5
353.15 K	1143.7
358.15 K	1141
363.15 K	1138.2
368.15 K	1135.5

CC1CCCCC1 [methylcyclohexane] + C[N+]1(CCCO)CCOCC1.N#C[N-]C#N
[2]
Details	activity coefficient
298.15 K	865
308.15 K	654
318.15 K	508
328.15 K	404
338.15 K	321

C[n+]1ccn(CCCO)c1.N#CN=C=[N-] [1-(3-hydroxypropyl)-3-methylimidazolium dicyanamide]
[1]
Details	mass density [kg/m3]
298.15 K	1171
303.15 K	1167.8
308.15 K	1164.6
313.15 K	1161.4
318.15 K	1158.2
323.15 K	1155.1
328.15 K	1152
333.15 K	1148.9
338.15 K	1145.8
343.15 K	1142.7
348.15 K	1139.6
353.15 K	1136.6
358.15 K	1133.6
363.15 K	1130.6
368.15 K	1127.6

CC(C)=O [acetone] + C[N+]1(CCCO)CCOCC1.N#C[N-]C#N
[2]
Details	activity coefficient
318.15 K	2.24
328.15 K	2.3
338.15 K	2.37
348.15 K	2.45
358.15 K	2.51
368.15 K	2.59

Cc1ccccc1 [toluene] + C[n+]1ccn(CCCO)c1.N#CN=C=[N-]
[2]
Details	activity coefficient
318.15 K	7.75
328.15 K	8
338.15 K	8.27
348.15 K	8.51
358.15 K	8.84
368.15 K	9.09

CCOC(C)=O [ethyl acetate] + C[N+]1(CCCO)CCOCC1.N#C[N-]C#N
[2]
Details	activity coefficient
318.15 K	9.71
328.15 K	9.78
338.15 K	9.83
348.15 K	9.91
358.15 K	10
368.15 K	10.1

COC(C)(C)C [2-methoxy-2-methylpropane] + C[n+]1ccn(CCCO)c1.N#CN=C=[N-]
[2]
Details	activity coefficient
318.15 K	22.8
328.15 K	23.2
338.15 K	23.5
348.15 K	24
358.15 K	24.3
368.15 K	24.7
